The values below come from US20090123501A1, “INHIBITION OF THE SH2-DOMAIN CONTAINING PROTEIN TYR-PHOSPHATASE, SHP-1, TO ENHANCE VACCINES” (Baylor College of Medicine, priority 2007, published 2009).

Assay [1] concerns the target T1, H-2D^b (Mus musculus, UniProt P01899).
T1 construct: lower relative expression of H-2D^b on RMA-S cells compared to H-2K^b; endogenous in cells; host or cells: RMA-S
T1 sequence (P01899 25-362): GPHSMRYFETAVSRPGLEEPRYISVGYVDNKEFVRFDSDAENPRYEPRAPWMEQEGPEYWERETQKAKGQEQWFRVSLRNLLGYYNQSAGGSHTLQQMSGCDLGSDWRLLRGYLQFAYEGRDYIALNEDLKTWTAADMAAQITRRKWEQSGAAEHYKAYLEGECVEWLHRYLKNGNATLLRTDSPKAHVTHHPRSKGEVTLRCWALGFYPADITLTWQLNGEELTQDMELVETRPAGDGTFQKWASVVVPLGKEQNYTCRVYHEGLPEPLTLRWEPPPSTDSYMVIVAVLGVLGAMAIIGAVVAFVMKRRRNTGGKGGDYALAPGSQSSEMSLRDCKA
T1 sequence (P01887 21-119 partner): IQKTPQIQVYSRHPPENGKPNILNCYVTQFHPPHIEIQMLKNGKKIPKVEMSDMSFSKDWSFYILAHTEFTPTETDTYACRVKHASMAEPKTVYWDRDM
Nature of the assay: MHC class I surface stabilization assay on RMA-S cells, H-2Db. The assay is classed as binding. The conditions noted are these: RMA-S cells pulsed with peptide overnight, flow cytometry. As for the experimental part:
10^6 RMA-S cells were incubated overnight at 37° C. with each of the five predicted at the concentrations indicated. Cells were stained with antibodies for H-2K^b (Y-3; ATCC-HB176) or H-2D^b (28-14-8S; ATCC-HB27) followed by a goat anti-mouse-FITC second step and MHC class I surface expression was analyzed by flow cytometry. Specific MFI is the mean fluorescent intensity of the sample-mean fluorescent intensity of goat anti-mouse-FITC second step alone. Error bars represent the standard deviation of triplicate measurements.
(§1) The binding affinity of the five predicted peptides was tested. In a surface stabilization assay using the TAP1 deficient cell line RMA-S. RMA-S cells were pulsed with peptide, at the indicated concentrations, and incubated overnight. Cells were stained with antibodies for H-2K^b (Y-3; ATCC-HB176) or H-2D^b (28-14-8S; ATCC-HB27) followed by a fluorescent-labeled secondary antibody and MHC class I surface expression was analyzed by flow cytometry.

In assay [2] the test system is TRAMP C2 tumors. Nature of the assay: DC vaccination of mice bearing ectopic TRAMP C2 tumors. The note with it: for TRAMP C2 tumor growth (growth curves, mean tumor volumes): by peptide loaded on DC vaccine, single i.p. vaccination 2×10^6 DCs, vs untreated mice; for TRAMP C2 tumor growth rate (mean tumor volume at day 48 post-vaccination, ANOVA): by peptide, pooled across viral treatments, vs no vaccination. The assay is classed as in vivo, C57BL/6 mice. As for the experimental part:
BMDCs were prepared as described above, transduced with either Ad5-SHP-1-shRNA or the control Ad5-scrambled-shRNA at 40,000 viral particles/cell, and pulsed with one of the six peptides listed in Table 1 (OVA, an irrelevant epitope to TRAMP 2 tumors, served as a negative control peptide) or a lysate of TRAMP C2 cells as a positive control antigen. 6-8 week C57BL/6 mice, bearing TRAMP C2 tumors (7×10^6 cells injected s.c. on the dorsal flank three days prior to vaccination), were given a single i.p. vaccination with 2×10^6 treated DCs or left untreated. Tumors were measured (length and width using calipers) every 2-4 days until termination of the study and tumor volume was estimated using the formula: Tumor volume (mm3)=x^2y×0.5236, where x is the smaller tumor dimension, and y is the larger tumor dimension. A-G) TRAMP tumor growth curves for vaccines loaded with the indicated peptides. Error bars represent the standard error of the mean of 5 mice vaccinated in each treatment. […] H-I) ANOVA analysis of peptide function and SHP-1 function. Data represent the averages 10 mice per peptide treatment and 5 mice in the no treatment control group for H) and 35 mice per viral transduction treatment and 5 mice in the no treatment control group for I). The green diamonds represent the mean and 95% confidence interval for each group from the ANOVA. The black line is the mean of means for the study and red symbols indicate significant differences (p<0.05 by Tukey-Kramer HSD multiple comparisons test).
To determine if there was a significant difference between the various peptides used in these DC vaccinations, mice were pooled across viral treatments (Ad5-SHP-1 shRNA or Ad5-scrambled-shRNA) employing the same peptide. An ANOVA for differences in mean tumor volume at day 48 post-vaccination (the time at which the majority of the vaccinated tumor growth curves change slope) and Tukey-Kramer HSD multiple comparisons test.
Next experiments were conducted to determine if vaccines transduced with Ad5-SHP-1-shRNA inhibited tumor growth compared to transduction with Ad5-scrambled-shRNA or no vaccine treatment, irrespective of what peptide was used in the vaccine.

The test system of assay [3] is total splenocytes. Nature of the assay: T cell subsets in total splenocytes 7 days after DC vaccination, flow cytometry. In kind it is in vivo, C57BL/6 mice. The conditions noted are these: by peptide, viral treatments pooled, day 7, vs no treatment control. The protocol: To determine the effect of SHP-1 inhibition on the initiation of T cell responses, BMDCs were cultured and CD11c^+ MACS purified as described above. […] Following peptide loading DCs were left untreated or transduced with one of 3 different adenoviral vectors: 1) Ad5-SHP-1-shRNA; 2) Ad5-scrambled-shRNA; or 3) Ad5-CMV-empty, an adenovirus carrying a CMV promoter expression vector but no insert. […] Using all combinations of peptide and virus treatment yielded 9 experimental vaccines and one no vaccine control. Vaccines (2×10^6 DCs) were injected i.p. into wt C57BL/6 mice. Seven days following vaccination mice were sacrificed and total splenocytes were analyzed by multi-color flow cytometry for the expression of several T cell subsets. CD3^+ CD8^+IFNγ^+ cells were characterized as CTL effectors, CD3^+ CD4^+IFNγ^+ cells were characterized as Th1 helper T cells, and CD4^+ FOXP3^+ cells were characterized as Treg cells. Flow cytometry data were analyzed by one-way analysis of variance (ANOVA) and Tukey-Kramer HSD multiple comparisons test for percentage of cells falling within each population following treatment. Cells were stained with anti-CD3, anti-CD8 and anti IFNγ to differentiate CD8^+ effectors and CD4^+ Th1 T cell skewing or anti-CD4 and anti-FOXP3 to determine Tregs. To determine if there was a peptide specific effects between the 3 different tumor antigens, viral treatments were pooled for each peptide exposure. Data represent the averages 6 mice per peptide treatment group and 2 mice in the no treatment control group. No significant differences were seen between peptides in the induction of Tregs or CD8^+ effector cells.
(§2) Following peptide loading DCs were left untreated or transduced with one of 3 different adenoviral vectors: 1) Ad5-SHP-1-shRNA; 2) Ad5-scrambled-shRNA; or 3) Ad5-CMV-empty, an adenovirus carrying a CMV promoter expression vector but no insert. Vaccines were injected i.p. into wt C57BL/6 mice and T cell skewing analyzed 7 days later by flow cytometry from total splenocytes. Cells were stained with anti-CD3, anti-CD8 and anti IFNγ for effector and Th1 cells or anti-CD4 and anti-FOXP3 for Tregs. For the peptide specific analysis viral treatments were pooled for each peptide exposure. Data represent the averages 6 mice per peptide treatment and two mice in the no treatment control group. The green diamonds represent the mean and 95% confidence interval for each group from the ANOVA. The black line is the mean of means for the study and red asterisk (*) indicates significant differences (p<0.05 by Tukey-Kramer HSD multiple comparisons test).
as §2, with “the SHP-1” for “the peptide”, “each viral treatment.” for “each peptide exposure.”, “and 2” for “and two”, “ANOVA. […]” for “ANOVA. The black line is the mean of means for the study and red asterisk (*) indicates significant differences (p<0.05 by Tukey-Kramer HSD multiple comparisons test).”
In general terms: A flow cytometer gives signals particle by particle.

Assay [4] relates to AP-1 signaling. Nature of the assay: AP-1-dependent secreted alkaline phosphatase reporter in RAW cells. The note with it: transient transfection, IFNγ or LPS stimulation. The assay is classed as cell-based, murine. The protocol: Function of the mutant and wt SHP-1 constructs was tested in RAW cells by transient transfection of SHP-1 vectors along with a reporter construct expressing a secreted alkaline phosphatase driven by either an NFκB or AP-1 dependent promoter. NFκB and AP-1 are major transcription factors stimulated by toll-like receptor (TLR) and cytokine signaling in immune system cells, and represent likely pathways of SHP-1 inhibition on cellular activation. Cells were transfected with the appropriate construct, reporter and then stimulated with interferon-γ (IFNγ) or bacterial lipopolysaccharide (LPS) as ligands for cytokine and TLR receptors respectively.

The target of assay [5] is T2, H-2K^b (mouse, UniProt P01887 21-119; P01901 22-305, limits assumed).
T2 construct: whole, on cells;extracellular; MHC class I on RMA-S cells, detected with antibody Y-3 (ATCC-HB176) in a surface stabilization assay; also called MHC class 1 molecule H-2K^b
T2 sequence (MHC heavy, looked up): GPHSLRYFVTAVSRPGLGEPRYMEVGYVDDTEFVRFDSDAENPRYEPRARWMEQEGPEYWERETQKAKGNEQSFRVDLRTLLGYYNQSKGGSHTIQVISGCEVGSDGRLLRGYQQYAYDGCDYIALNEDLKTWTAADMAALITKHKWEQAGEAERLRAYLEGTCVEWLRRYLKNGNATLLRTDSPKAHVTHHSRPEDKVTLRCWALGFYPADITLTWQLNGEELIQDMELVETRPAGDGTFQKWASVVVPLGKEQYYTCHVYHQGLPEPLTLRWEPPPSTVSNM
T2 sequence (b2m, looked up): T1 sequence (P01887 21-119 partner)
As to the kind of experiment: RMA-S surface stabilization assay, flow cytometry with antibody Y-3. As for the experimental part:
(§3) 10⁶ RMA-S cells were incubated overnight at 37° C. with each of the five predicted at the concentrations indicated. Cells were stained with antibodies for H-2K^b (Y-3; ATCC-HB176) or H-2D^b (28-14-8S; ATCC-HB27) followed by a goat anti-mouse-FITC second step and MHC class I surface expression was analyzed by flow cytometry. Specific MFI is the mean fluorescent intensity of the sample-mean fluorescent intensity of goat anti-mouse-FITC second step alone. Error bars represent the standard deviation of triplicate measurements. This is representative of 3 separate studies.
as §1, with “cytometry. […] STEAP₈₄₋₉₁ and STEAP₁₈₆₋₁₉₂ bound with an affinity near that of OVA₂₅₈₋₂₆₅, a well characterized strong binding H-2K^b epitope from chicken ovalbumin. […]” for “cytometry.”

The target of assay [6] is T3, H-2D^b (mouse, UniProt P01887 21-119; P01899 25-309).
T3 construct: whole, on cells;extracellular; MHC class I on RMA-S cells, detected with antibody 28-14-8S (ATCC-HB27) in a surface stabilization assay; also called MHC class 1 molecule H-2D^b
T3 sequence (MHC heavy, looked up): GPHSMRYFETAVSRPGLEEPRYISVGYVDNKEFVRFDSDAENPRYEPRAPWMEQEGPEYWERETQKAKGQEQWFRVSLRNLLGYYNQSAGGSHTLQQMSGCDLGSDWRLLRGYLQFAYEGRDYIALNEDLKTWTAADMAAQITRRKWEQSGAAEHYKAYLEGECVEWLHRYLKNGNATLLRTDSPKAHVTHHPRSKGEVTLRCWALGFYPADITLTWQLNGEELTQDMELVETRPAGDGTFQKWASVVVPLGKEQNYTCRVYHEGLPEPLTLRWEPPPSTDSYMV
T3 sequence (b2m, looked up): T1 sequence (P01887 21-119 partner)
Nature of the assay: RMA-S surface stabilization assay, flow cytometry with antibody 28-14-8S. The protocol:
as §3
as §1, with “cytometry. […] STEAP₈₄₋₉₁ and STEAP₁₈₆₋₁₉₂ bound with an affinity near that of OVA₂₅₈₋₂₆₅, a well characterized strong binding H-2K^b epitope from chicken ovalbumin. […]” for “cytometry.”

AQMNNRDCL [PSCA29-37]: the “relative binding affinity to H-2Db (MHC class I surface expression)” value (“relative binding affinity to H-2Db” for short) in assay [1] is recorded as “did not appear to bind as well as some of the other peptides”. For the same molecule, in assay [2], the “TRAMP C2 tumor growth (growth curves, mean tumor volumes)” value is recorded as “strong inhibition of tumor growth” and the “TRAMP C2 tumor growth rate (mean tumor volume at day 48 post-vaccination, ANOVA)” value is given as “significant decrease in tumor growth rate”.
Take “SIINFEKL [OVA258-265, reference compound]”: the “TRAMP C2 tumor growth (growth curves, mean tumor volumes)” value in assay [2] is given as “equivalent to mice receiving no vaccine treatment”.
As for VSKINRTEM [STEAP327-335], the “relative binding affinity to H-2Db” value in assay [1] was “did not appear to bind as well as some of the other peptides”. In addition, in assay [2], the “TRAMP C2 tumor growth (growth curves, mean tumor volumes)” value is reported as “strong inhibition of tumor growth” and the “TRAMP C2 tumor growth rate (mean tumor volume at day 48 post-vaccination, ANOVA)” value was “significant decrease in tumor growth rate”. In addition, the Th1 skewing entry in assay [3] is reported as “significant”.
As for SVYDFFVWL [Trp-2, reference compound], the Th1 skewing entry in assay [3] is “significant”.
For the molecule LLLGTVHAL [STEAP262-270], the “relative binding affinity to H-2Db” value in assay [1] is “no detectable binding at any peptide concentration”.
Consider “ca-SHP-1: constitutively active SHP-1 mutant with N-terminal SH2 domain deleted, HA-tagged (SEQ ID NO:9)”, for which the AP-1 signaling entry in assay [4] was “suppressing AP-1 signaling”.
With RSYRYKLL [STEAP186-192], in assay [5], the binding result is reported as “binds”.
VSKINRTEM [STEAP327-335]: the binding result in assay [6] is listed as “binds”.
For the molecule AQMNNRDCL [PSCA29-37], the binding result in assay [6] was “binds”.
Take LTFLYTLL [STEAP84-91]: the binding result in assay [5] is recorded as “binds”.
